# Literature values, collected in patent publication US9309247B2, “2-substituted imidazo[4,5-D]phenanthroline derivatives and their use in the treatment of cancer” (Aptose Biosciences Inc., priority 2013, dated 2016).
# Experiments:
# [1] = NCI screen; cited from earlier work
# [2] = tested on: Saccharmyces cerevisiae strains that have mutations in genes related to cell cycle control and DNA repair damage; details: Stage0 testing, single concentration, six yeast strains; cited from earlier work
smiles,measurement,setting,value
Cc1ccccc1-c1nc2c3ccccc3c3ccccc3c2[nH]1 [NCI #338970],activity in the In Vivo Anticancer Drug Screen,[1],None of these three compounds showed any activity
same,activity in the Yeast Anticancer Drug Screen,[2],active
